Reference: ChEMBL document CHEMBL1150629, “Isolation and structure of pedilstatin from a republic of maldives Pedilanthus sp” (J Nat Prod, 2002)
In brackets after ≈: the same amount, converted by molar mass.

Assays:
[1] = test system: Human immunodeficiency virus 1; test: Antiviral activity against HIV1 RF in human CEM-SS cells assessed as cell protection from infection at 2 to 5 uM after 7 days relative to control; type: functional
[2] = Inhibition of [20-3H]phorbol 12,13-dibutyrate binding to protein kinase C
CEM-SS = test: Cytotoxicity against human CEM-SS cells assessed as inhibition of cell metabolic activity after 7 days by XTT assay; type: functional, cell-based; settings: 168 h
[3] = test system: Human immunodeficiency virus 1; test: Antiviral activity against HIV1 RF in human CEM-SS cells assessed as cell protection from infection after 7 days; type: functional, organism-based; settings: Human immunodeficiency virus 1, CEM-SS, 168 h
P388 = test: Cytotoxicity against mouse P388 cells; type: functional; settings: read-out: ED50 (the source's name)

Ki [2]: 0.62 µM | EC50 [3]: 1.03 µM
SMILES: CCC/C=C/C=C\C(=O)O[C@@H]1[C@@H](C)[C@]2(O)[C@@H]3C=C(C)C(=O)[C@@H]3CC(CO)=C[C@H]2[C@@H]2C(C)(C)[C@]12OC(C)=O [PEDILSTATIN]
Activity [1]: 80% | IC50 (CEM-SS): 13.3 µM | EC50 (P388): 0.28 µg/mL (≈ 0.546 µM)
